The supplement of paper PMC6045584
± gives the standard deviation of the averaged measurements.

Legend:
XAV-939 = compound: Oc1nc(-c2ccc(C(F)(F)F)cc2)nc2c1CSCC2 [XAV-939]; test: surviving fraction relative to DMSO-only wells; higher = less growth inhibition; settings: exposure time: 5 days
Outline: (§1)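 Surviving fraction was calculated by normalising CellTiter-Glo luminescence to the median of DMSO-only wells. Tumour cell lines in log phase were seeded in 384-well plates at 250–500 cells per well, and 24 hours later were exposed continuously for five days to inhibitors at 0.5, 1, 5, 10, 50, 100, 500 and 1000 nM.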

MLN-4924 = compound: NS(=O)(=O)OC[C@@H]1C[C@@H](n2ccc3c(N[C@H]4CCc5ccccc54)ncnc32)C[C@@H]1O [MLN-4924]; test: as above; settings: exposure time: 5 days
Outline: as §1

| Test System | surviving fraction (XAV-939; 0.5 nM) | surviving fraction (XAV-939; 1 nM) | surviving fraction (XAV-939; 5 nM) | surviving fraction (XAV-939; 10 nM) | surviving fraction (XAV-939; 50 nM) | surviving fraction (XAV-939; 100 nM) | surviving fraction (XAV-939; 500 nM) | surviving fraction (XAV-939; 1000 nM) | surviving fraction (MLN-4924; 0.5 nM) | surviving fraction (MLN-4924; 1 nM) | surviving fraction (MLN-4924; 5 nM) | surviving fraction (MLN-4924; 10 nM) | surviving fraction (MLN-4924; 50 nM) | surviving fraction (MLN-4924; 100 nM) | surviving fraction (MLN-4924; 500 nM) | surviving fraction (MLN-4924; 1000 nM) |
| --- | --- | --- | --- | --- | --- | --- | --- | --- | --- | --- | --- | --- | --- | --- | --- | --- |
| SYO1 SYNOVIAL | 0.954 ± 0.039 | 0.998 ± 0.062 | 0.984 ± 0.028 | 0.997 ± 0.047 | 0.973 ± 0.059 | 0.879 ± 0.024 | 0.708 ± 0.044 | 0.568 ± 0.0066 | 0.996 ± 0.05 | 0.996 ± 0.029 | 1.01 ± 0.039 | 0.992 ± 0.03 | 0.65 ± 0.019 | 0.334 ± 0.028 | 0.0614 ± 0.0023 | 0.0519 ± 0.0031 |
| OSHN BONE | 1.02 ± 0.013 | 1.07 ± 0.047 | 1.07 ± 0.037 | 1.05 ± 0.038 | 1.05 ± 0.015 | 1.09 ± 0.031 | 1.07 ± 0.038 | 1.11 ± 0.035 | 1.09 ± 0.016 | 1.079 ± 0.01 | 1.15 ± 0.026 | 1.087 ± 0.0023 | 0.733 ± 0.018 | 0.565 ± 0.045 | 0.274 ± 0.028 | 0.258 ± 0.054 |
| SG31 HEADNECK | 1.02 ± 0.12 | 1.13 ± 0.1 | 1.12 ± 0.28 | 1.02 ± 0.046 | 0.985 ± 0.021 | 0.853 ± 0.19 | 0.745 ± 0.055 | 0.747 ± 0.037 | 1.21 ± 0.15 | 1.37 ± 0.22 | 1.06 ± 0.24 | 1.12 ± 0.14 | 0.671 ± 0.12 | 0.553 ± 0.062 | 0.247 ± 0.0062 | 0.198 ± 0.034 |
| HCC78 LUNG | 0.9 ± 0.1 | 0.925 ± 0.12 | 1.09 ± 0.18 | 0.991 ± 0.13 | 0.983 ± 0.082 | 0.822 ± 0.16 | 0.286 ± 0.062 | 0.358 ± 0.08 | 0.845 ± 0.11 | 0.588 ± 0.064 | 0.722 ± 0.17 | 0.808 ± 0.15 | 0.487 ± 0.067 | 0.27 ± 0.1 | 0.0393 ± 0.011 | 0.0343 ± 0.0078 |
| HOS BONE | 1.01 ± 0.028 | 1.05 ± 0.016 | 1.02 ± 0.013 | 1.04 ± 0.0066 | 1.04 ± 0.029 | 1.04 ± 0.011 | 0.996 ± 0.02 | 1.05 ± 0.065 | 1.04 ± 0.026 | 1.02 ± 0.014 | 1.01 ± 0.042 | 0.949 ± 0.027 | 0.574 ± 0.033 | 0.337 ± 0.013 | 0.0287 ± 0.0011 | 0.0287 ± 0.0021 |
| SJSA1 BONE | 1.1 ± 0.061 | 1.04 ± 0.053 | 1.06 ± 0.037 | 1.12 ± 0.055 | 1.16 ± 0.06 | 1.18 ± 0.037 | 1.07 ± 0.071 | 1.08 ± 0.014 | 0.247 ± 0.017 | 1.7 ± 0.13 | 1.68 ± 0.098 | 1.57 ± 0.046 | 1.64 ± 0.17 | 1.8 ± 0.063 | 1.62 ± 0.033 | 1.73 ± 0.071 |
| HCC1395 BREAST | 0.889 ± 0.052 | 0.822 ± 0.34 | 0.987 ± 0.096 | 0.937 ± 0.25 | 0.973 ± 0.12 | 0.847 ± 0.23 | 1.04 ± 0.027 | 0.855 ± 0.14 | 1.07 ± 0.042 | 1.13 ± 0.05 | 1.01 ± 0.14 | 1.15 ± 0.14 | 1.1 ± 0.014 | 1.083 ± 0.008 | 0.989 ± 0.1 | 1.01 ± 0.053 |
| CAL51 BREAST | 0.967 ± 0.032 | 1.03 ± 0.046 | 1.02 ± 0.025 | 0.992 ± 0.017 | 1.01 ± 0.049 | 1.01 ± 0.023 | 0.846 ± 0.033 | 0.799 ± 0.089 | 1.01 ± 0.035 | 1.01 ± 0.045 | 1.06 ± 0.025 | 1.01 ± 0.051 | 0.922 ± 0.067 | 0.702 ± 0.085 | 0.2 ± 0.022 | 0.128 ± 0.012 |
| MDAMB157 BREAST | 0.969 ± 0.012 | 0.94 ± 0.11 | 0.974 ± 0.059 | 1.05 ± 0.039 | 0.919 ± 0.084 | 0.934 ± 0.079 | 0.775 ± 0.071 | 0.709 ± 0.074 | 1 ± 0.019 | 0.966 ± 0.087 | 0.968 ± 0.07 | 0.931 ± 0.041 | 0.906 ± 0.09 | 0.743 ± 0.054 | 0.379 ± 0.043 | 0.267 ± 0.022 |
| SG43 HEADNECK | 1.07 ± 0.11 | 1.03 ± 0.07 | 0.909 ± 0.17 | 0.806 ± 0.26 | 0.744 ± 0.04 | 0.878 ± 0.17 | 0.9 ± 0.068 | 0.761 ± 0.081 | 1.15 ± 0.29 | 1 ± 0.32 | 1.02 ± 0.26 | 1.15 ± 0.18 | 0.885 ± 0.19 | 1.11 ± 0.15 | 0.463 ± 0.094 | 0.223 ± 0.087 |
